From patent publication US9028845B2, “Chimeric immunomodulatory compounds and methods of using the same-IV” (Dynavax Technologies Corporation, priority 2001, dated 2015)

Test system: human PBMCs
Assay: Human PBMC cytokine response assay (IFN-γ and IFN-α in cell-free medium by ELISA), with or without cPLGA;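 for IFN-α (pg/ml) mean: 20 µg/mL compound for 24 hours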;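 for IFN-γ (pg/ml) mean: 20 µg/mL compound for 24 hours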
Assay type: cell-based
[1] = Table 24, mean of donors 28234-28237
[2] = Table 25, mean of donors 28250-28253
[3] = donor 28066, 20 ug/ml, 24 h, + PLGA = premixed with 100 μg/ml cPLGA
[4] = donor 28067, 20 ug/ml, 24 h, + PLGA = premixed with 100 μg/ml cPLGA
[5] = donor 28068, 20 ug/ml, 24 h, + PLGA = premixed with 100 μg/ml cPLGA
[6] = mean of Donors 1-2, 20 μg/ml, 24 h
[7] = mean of Donors 3-4, 20 μg/ml, 24 h
[8] = mean of Donors 5-6, 20 μg/ml (mixtures: 20 μg/ml total), 24 h
[9] = mean of Donors 7-8, 20 μg/ml, 24 h
[10] = mean of Donors 9-12, 20 μg/ml, 24 h
[11] = mean of donors 110, 112, 119, 120, Table 14
[12] = mean of donors 28057-28060, Table 16
[13] = mean of donors 28065-28068, 20 ug/ml, 24 h, + PLGA = premixed with 100 μg/ml cPLGA
[14] = mean of donors 28185-28188, Table 15
[15] = mean of donors 28218-28221, 20 μg/ml, 24 h

5′-TGACTGTGAACGTTCGAGATGA-3′ (SEQ ID NO: 2) [Compound P-6, reference compound]
IFN-γ (Table 13, donor 28157): 872 pg/mL
IFN-α (Table 13, donor 28158): 7 pg/mL
IFN-γ (Table 13, donor 28158): 207 pg/mL
IFN-α (Table 13, donor 28159): 32 pg/mL
IFN-γ (Table 13, donor 28159): 231 pg/mL
IFN-α mean (Table 13, mean of donors): 144 pg/mL
IFN-γ mean (Table 13, mean of donors): 611 pg/mL
IFN-α (Table 24, donor 28234): 58 pg/mL
IFN-γ (Table 24, donor 28234): 15 pg/mL
IFN-α (Table 24, donor 28235): 16 pg/mL
IFN-γ (Table 24, donor 28235): 52 pg/mL
IFN-α (Table 24, donor 28236): 16 pg/mL
IFN-γ (Table 24, donor 28236): 51 pg/mL
IFN-α (Table 24, donor 28237): 74 pg/mL
IFN-γ (Table 24, donor 28237): 1167 pg/mL
IFN-α mean [1]: 41 pg/mL
IFN-γ mean [1]: 321 pg/mL
IFN-a (Table 25, donor 28250): 16 pg/mL
IFN-a (Table 25, donor 28251): 16 pg/mL
IFN-g (Table 25, donor 28251): 18 pg/mL
IFN-a (Table 25, donor 28252): 16 pg/mL
IFN-g (Table 25, donor 28252): 34 pg/mL
IFN-a (Table 25, donor 28253): 16 pg/mL
IFN-g (Table 25, donor 28253): 37 pg/mL
IFN-a mean [2]: 16 pg/mL
IFN-g mean [2]: 52 pg/mL
IFN-α (donor 110, Table 14): 50 pg/mL
IFN-γ (donor 110, Table 14): 1508 pg/mL
IFN-α (donor 112, Table 14): 172 pg/mL
IFN-γ (donor 112, Table 14): 344 pg/mL
IFN-α (donor 119, Table 14): 234 pg/mL
IFN-γ (donor 119, Table 14): 144 pg/mL
IFN-α (donor 120, Table 14): 72 pg/mL
IFN-γ (donor 120, Table 14): 104 pg/mL
IFN-α (donor 28057, Table 16): 621 pg/mL
IFN-γ (donor 28057, Table 16): 83 pg/mL
IFN-α (donor 28058, Table 16): 396 pg/mL
IFN-γ (donor 28058, Table 16): 103 pg/mL
IFN-α (donor 28059, Table 16): 145 pg/mL
IFN-γ (donor 28059, Table 16): 1230 pg/mL
IFN-α (donor 28060, Table 16): 123 pg/mL
IFN-γ (donor 28060, Table 16): 85 pg/mL
IFN-γ (pg/ml) 28065 (donor 28065 (high background), 20 ug/ml, 24 h, + PLGA = premixed with 100 μg/ml cPLGA, 1000 = outside assay limits): 439 pg/mL
IFN-α (pg/ml) 28065 (donor 28065, 20 ug/ml, 24 h, + PLGA = premixed with 100 μg/ml cPLGA): 14 pg/mL
IFN-α (pg/ml) 28066 [3]: 17 pg/mL
IFN-γ (pg/ml) 28066 [3]: 12 pg/mL
IFN-α (pg/ml) 28067 [4]: 45 pg/mL
IFN-γ (pg/ml) 28067 [4]: 28 pg/mL
IFN-α (pg/ml) 28068 [5]: 126 pg/mL
IFN-γ (pg/ml) 28068 [5]: 906 pg/mL
IFN-a (donor 28185, Table 15): 120 pg/mL
IFN-g (donor 28185, Table 15): 205 pg/mL
IFN-a (donor 28186, Table 15): 41 pg/mL
IFN-g (donor 28186, Table 15): 17 pg/mL
IFN-a (donor 28187, Table 15): 4 pg/mL
IFN-g (donor 28187, Table 15): 148 pg/mL
IFN-a (donor 28188, Table 15): 4 pg/mL
IFN-g (donor 28188, Table 15): 8 pg/mL
IFN-a (pg/ml) 28218 (donor 28218, 20 μg/ml, 24 h): 32 pg/mL
IFN-g (pg/ml) 28218 (donor 28218, 20 μg/ml, 24 h): 13 pg/mL
IFN-a (pg/ml) 28219 (donor 28219, 20 μg/ml, 24 h): 32 pg/mL
IFN-g (pg/ml) 28219 (donor 28219, 20 μg/ml, 24 h): 7 pg/mL
IFN-a (pg/ml) 28220 (donor 28220, 20 μg/ml, 24 h): 32 pg/mL
IFN-g (pg/ml) 28220 (donor 28220, 20 μg/ml, 24 h): 25 pg/mL
IFN-a (pg/ml) 28221 (donor 28221, 20 μg/ml, 24 h): 32 pg/mL
IFN-g (pg/ml) 28221 (donor 28221, 20 μg/ml, 24 h): 141 pg/mL
IFN-α (pg/ml) mean [6]: 220 pg/mL
IFN-γ (pg/ml) mean [6]: 1425 pg/mL
IFN-α (pg/ml) mean [7]: 67 pg/mL
IFN-γ (pg/ml) mean [7]: 161 pg/mL
IFN-α (pg/ml) mean [8]: 268 pg/mL
IFN-γ (pg/ml) mean [8]: 621 pg/mL
IFN-α (pg/ml) mean [9]: 32 pg/mL
IFN-γ (pg/ml) mean [9]: 191 pg/mL
IFN-α mean [10]: 16
IFN-γ mean [10]: 45
IFN-α (pg/ml) mean [11]: 132 pg/mL
IFN-γ (pg/ml) mean [11]: 525 pg/mL
IFN-α (pg/ml) mean [12]: 321 pg/mL
IFN-γ (pg/ml) mean [12]: 375 pg/mL
IFN-α (pg/ml) mean [13]: 50 pg/mL
IFN-γ (pg/ml) mean [13]: 346 pg/mL
IFN-a (pg/ml) mean [14]: 42 pg/mL
IFN-g (pg/ml) mean [14]: 94 pg/mL
IFN-a (pg/ml) mean [15]: 32 pg/mL
IFN-g (pg/ml) mean [15]: 47 pg/mL
IFN-a (pg/ml) ×2 (mean ×2, Table 15): 84 pg/mL
IFN-g (pg/ml) ×4 (mean ×4, Table 15): 378 pg/mL
